Our source for the IC50 values is patent US20090221616A1, “QUINAZOLINE DERIVATIVES AS EGF AND/OR ERBB2 TYROSINE KINASE INHIBITORS” (priority 2005, published 2009).

One test concerns the target T1, EGFR tyrosine kinase (Homo sapiens, UniProt P00533).
T1 construct: Recombinant intracellular fragments of EGFR, erbB2 and erbB4; made in house; host or cells: baculovirus/Sf21 insect cells (cleared lysate used)
In words: Test (a) protein tyrosine kinase phosphorylation assay, EGFR. The test is classed as biochemical. Particulars: ATP at Km concentration; read-out: IC50 Test (a): Inhibition of EGFR tyrosine kinase protein phosphorylation. How it is done:
(§1) This test measures the ability of a test compound to inhibit the phosphorylation of a tyrosine containing polypeptide substrate by EGFR, erbB2 and erbB4 tyrosine kinase enzyme.
(§2) Recombinant intracellular fragments of EGFR, erbB2 and erbB4 (accession numbers X00588, X03363 and L07868 respectively) were cloned and expressed in the baculovirus/Sf21 system. […]
(§3) Constitutive kinase activity of these recombinant proteins was determined by their ability to phosphorylate a synthetic peptide (made up of a random co-polymer of Glutamic Acid, Alanine and Tyrosine in the ratio of 6:3:1). […]
(§4) The immobilised phospho-peptide product of the reaction was detected by immunological methods. […] After further washing, HRP activity in each well of the plate was measured colorimetrically using 22′-Azino-di-[3-ethylbenzthiazoline sulfonate (6)] diammonium salt crystals (ABTS™ from Roche) as a substrate.
(§5) Quantification of colour development and thus enzyme activity was achieved by the measurement of absorbance at 405 nm on a Molecular Devices ThermoMax microplate reader. Kinase inhibition for a given compound was expressed as an IC50 value. […] The range of phosphorylation was calculated from the positive (vehicle plus ATP) and negative (vehicle minus ATP) control values.

The target of a further test is T2, erbB2 tyrosine kinase (Homo sapiens, UniProt P04626).
T2 construct: Recombinant intracellular fragments of EGFR, erbB2 and erbB4; made in house; host or cells: baculovirus/Sf21 insect cells (cleared lysate used)
In words: Test (a) protein tyrosine kinase phosphorylation assay, erbB2. It counts as biochemical. Conditions: ATP at Km concentration; read-out: IC50 Test (a): Inhibition of erbB2 tyrosine kinase protein phosphorylation. How it is done:
as §1, §2, §3, §4, §5

The target in test [1] is T3, erbB2 in a MCF7 derived cell line (Clone 24 cells) (Homo sapiens, UniProt P04626).
T3 construct: to give a cell line that overexpresses full length wild type erbB2 protein; expressed in transfected cells; host or cells: MCF7 (breast carcinoma) derived Clone 24 cells
The experiment in a line: Test (c) Clone 24 phospho-erbB2 cell assay. The test is classed as cell-based. Conditions: MCF7 derived Clone 24 cells, 4 hours with compound; read-out: IC50 Test (c): Inhibition of erbB2 tyrosine kinase protein phosphorylation. How it is done: This immunofluorescence end point assay measures the ability of a test compound to inhibit the phosphorylation of erbB2 in a MCF7 (breast carcinoma) derived cell line which was generated by transfecting MCF7 cells with the full length erbB2 gene using standard methods to give a cell line that overexpresses full length wild type erbB2 protein (hereinafter ‘Clone 24’ cells).
Clone 24 cells were cultured in Growth Medium (phenol red free Dulbecco's modified Eagle's medium (DMEM) containing 10% foetal bovine serum, 2 mM glutamine and 1.2 mg/ml G418) in a 7.5% CO2 air incubator at 37° C. […] Cell density was measured using a haemocytometer and viability was calculated using Trypan Blue solution before being further diluted in Growth Medium and seeded at a density of 1×10^4 cells per well (in 100 μl) into clear bottomed 96 well plates (Packard, No. 6005182). […]
Immunostaining was performed at room temperature. […] Plates were analysed within six hours of completing the immunostaining.
The Fluorescence signal is each well was measured using an Acumen Explorer Instrument (Acumen Bioscience Ltd.), a plate reader that can be used to rapidly quantitate features of images generated by laser-scanning. […]

T1 sequence (P00533 669-1210 limits assumed): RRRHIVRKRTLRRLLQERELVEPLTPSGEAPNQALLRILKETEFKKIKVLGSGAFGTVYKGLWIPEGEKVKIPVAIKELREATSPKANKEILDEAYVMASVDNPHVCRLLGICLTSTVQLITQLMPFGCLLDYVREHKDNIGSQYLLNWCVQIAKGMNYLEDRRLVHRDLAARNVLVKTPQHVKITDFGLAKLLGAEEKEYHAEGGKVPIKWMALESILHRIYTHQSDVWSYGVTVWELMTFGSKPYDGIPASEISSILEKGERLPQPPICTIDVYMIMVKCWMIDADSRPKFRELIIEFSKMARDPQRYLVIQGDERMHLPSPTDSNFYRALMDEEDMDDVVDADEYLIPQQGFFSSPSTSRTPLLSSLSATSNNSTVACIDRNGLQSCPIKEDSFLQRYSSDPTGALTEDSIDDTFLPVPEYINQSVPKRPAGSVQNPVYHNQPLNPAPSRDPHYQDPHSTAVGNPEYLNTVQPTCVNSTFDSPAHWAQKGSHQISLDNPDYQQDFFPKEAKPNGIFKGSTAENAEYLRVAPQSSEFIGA
T3 sequence (P04626 23-1255): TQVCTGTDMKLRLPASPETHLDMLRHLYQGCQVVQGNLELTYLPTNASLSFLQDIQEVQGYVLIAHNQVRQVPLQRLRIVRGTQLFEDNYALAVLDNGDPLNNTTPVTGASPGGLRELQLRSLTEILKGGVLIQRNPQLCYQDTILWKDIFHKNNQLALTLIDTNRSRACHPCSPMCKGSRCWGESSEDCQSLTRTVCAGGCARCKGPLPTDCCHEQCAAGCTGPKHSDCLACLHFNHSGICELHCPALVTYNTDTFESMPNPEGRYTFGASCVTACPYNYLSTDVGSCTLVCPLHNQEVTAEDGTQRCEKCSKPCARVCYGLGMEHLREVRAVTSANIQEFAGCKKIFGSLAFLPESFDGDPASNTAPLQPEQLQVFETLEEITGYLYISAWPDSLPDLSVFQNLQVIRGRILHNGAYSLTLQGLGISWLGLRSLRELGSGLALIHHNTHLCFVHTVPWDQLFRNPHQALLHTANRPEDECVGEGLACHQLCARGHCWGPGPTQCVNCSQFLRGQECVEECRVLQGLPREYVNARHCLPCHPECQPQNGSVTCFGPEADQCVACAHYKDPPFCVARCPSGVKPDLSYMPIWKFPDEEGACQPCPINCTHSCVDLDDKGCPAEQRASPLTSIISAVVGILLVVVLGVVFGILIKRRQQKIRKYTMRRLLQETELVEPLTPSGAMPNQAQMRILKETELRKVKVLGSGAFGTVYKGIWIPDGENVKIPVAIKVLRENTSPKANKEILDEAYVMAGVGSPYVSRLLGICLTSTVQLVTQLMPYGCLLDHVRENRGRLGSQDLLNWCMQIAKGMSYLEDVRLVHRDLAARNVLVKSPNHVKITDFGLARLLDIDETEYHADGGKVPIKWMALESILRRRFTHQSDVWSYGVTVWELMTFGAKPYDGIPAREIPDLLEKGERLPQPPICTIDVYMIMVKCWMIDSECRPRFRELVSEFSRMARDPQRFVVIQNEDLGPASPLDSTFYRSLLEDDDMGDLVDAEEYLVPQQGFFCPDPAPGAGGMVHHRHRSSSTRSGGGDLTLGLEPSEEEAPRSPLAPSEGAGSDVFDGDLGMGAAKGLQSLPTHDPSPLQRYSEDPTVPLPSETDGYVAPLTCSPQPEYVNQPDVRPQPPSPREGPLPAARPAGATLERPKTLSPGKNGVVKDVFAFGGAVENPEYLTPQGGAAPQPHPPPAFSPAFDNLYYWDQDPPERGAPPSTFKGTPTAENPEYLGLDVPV
T2 sequence (P04626 676-1255 limits assumed): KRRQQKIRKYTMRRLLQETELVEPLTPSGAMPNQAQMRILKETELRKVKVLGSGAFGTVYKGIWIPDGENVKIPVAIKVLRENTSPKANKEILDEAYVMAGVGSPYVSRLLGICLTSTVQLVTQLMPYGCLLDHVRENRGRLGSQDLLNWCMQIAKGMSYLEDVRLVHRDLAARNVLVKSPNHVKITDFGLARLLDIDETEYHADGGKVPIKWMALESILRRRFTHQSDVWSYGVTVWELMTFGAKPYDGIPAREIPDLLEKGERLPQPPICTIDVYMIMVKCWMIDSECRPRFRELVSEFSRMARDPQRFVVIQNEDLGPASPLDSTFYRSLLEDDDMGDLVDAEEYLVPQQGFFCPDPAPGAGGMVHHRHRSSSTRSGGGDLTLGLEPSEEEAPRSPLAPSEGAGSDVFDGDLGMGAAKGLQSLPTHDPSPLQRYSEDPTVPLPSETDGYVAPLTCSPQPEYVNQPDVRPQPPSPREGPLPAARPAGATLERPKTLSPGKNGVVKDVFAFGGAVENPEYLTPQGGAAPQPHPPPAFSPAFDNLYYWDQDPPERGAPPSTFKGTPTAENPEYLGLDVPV

With `CN(CCOc1cccc2ncnc(Nc3ccc4c(cnn4Cc4cscn4)c3)c12)C(=O)CO` [Example 2, 2-Hydroxy-N-methyl-N-{2-[(4-{[1-(1,3-thiazol-4-ylmethyl)-1H-indazol-5-yl]amino}quinazolin-5-yl)oxy]ethyl}acetamide], the IC50 was 0.16 µM on EGFR tyrosine kinase, 0.006 µM at erbB2 tyrosine kinase and 0.59 µM in test [1].
For `CN(CCOc1cccc2ncnc(Nc3ccc4c(cnn4Cc4ccccn4)c3)c12)C(=O)CO` [Example 1, 2-Hydroxy-N-methyl-N-{2-[(4-{[1-(pyridin-2-ylmethyl)-1H-indazol-5-yl]amino}quinazolin-5-yl)oxy]ethyl}acetamide] the same measures were 0.18 µM, 0.008 µM and 0.42 µM.

As a reminder, the IC50 is the concentration that inhibits the measured activity by half.
